Assay results taken from patent US7358042B2, “Triosephosphate isomerase directed diagnostics and therapeutics for multidrug resistant neoplastic disease” (priority 2003, dated 2008).

Columns and labels:
[1] = test system: antigen-positive E3 cell line; settings: read-out: IC50 (cytotoxicities); cited from earlier work
E3 target cells = settings: cited from earlier work
[2] = test system: hematological tumor cells; experiment: Triosephosphate isomerase vaccination of mice injected with hematological tumor cells; type: in vivo; settings: mice vaccinated prior to injection of the tumor cells versus not vaccinated

Q: Which IC50 [1] does the source give for O=c1[nH]c(=O)n([C@H]2C[C@H](O)[C@@H](CO)O2)cc1F [FUDR, 5-fluoro-2′-deoxyuridine] here?
A: 0.4 nM

Q: For CC(=O)[C@]1(O)Cc2c(O)c3c(c(O)c2[C@@H](O[C@H]2C[C@H](N)[C@H](O)[C@H](C)O2)C1)C(=O)c1ccccc1C3=O [Ida, Idarubicin], which IC50 (E3 target cells) is on record?
A: 120 nM

Q: Which tumor size [2] does the source give for “triosephosphate isomerase: purified full length murine triosephosphate isomerase protein used as vaccine antigen, may be administered with an adjuvant” here?
A: smaller
